Source: patent US20230313217A1, “CHLOROPLAST TARGETING PEPTIDES AND CONJUGATES AND COMPOSITIONS THEREOF” (The Regents of the University of California, priority 2021, published 2023)

Legend:
[1] = test system: chloroplasts in leaf mesophyll cells; experiment: Chemical cargo (FDA) delivery to chloroplasts, confocal colocalization; type: in vivo, Arabidopsis thaliana; details: FDA alone
Text: Chemical Cargo and Plasmid DNA and Delivery to Chloroplasts Mediated by Targeted Nanomaterials. To assess the delivery of chemical cargoes to chloroplasts mediated by TP-β-CD nanocarriers, we loaded β-cyclodextrins with the fluorescent dye […] (FDA) (FIG. 4A). We imaged the localization of FDA within leaf mesophyll tissues by confocal microscopy and quantified the localization of this fluorescence dye with chloroplasts autofluorescence (FIG. 4B,C). Plant leaves treated with TP-β-CD-FDA or TP-β-CD (Table 1) were analyzed for the fluorescence emission crosstalk with confocal microscopy under laser excitation with a 488 nm laser (FIG. 13A). […] When added together with CDs or β-CDs, the FDA was observed both in the intracellular and extracellular space. […] In contrast, when FDA was delivered by TP-β-CDs, most of the FDA fluorescence signal was detected inside leaf mesophyll cells and highly colocalized with chloroplasts (70.0±9.5%) (FIG. 4B). […] Although targeted TP-β-CDs improved the delivery of FDA to chloroplasts in leaf mesophyll cells, the FDA fluorescence signal was localized throughout the entire leaf mesophyll cells. […] Colocalization rates of FDA fluorescence with chloroplasts were determined using Mander's coefficient analysis (COLOC2, ImageJ). […]
Confocal Fluorescence Microscopy. […]

[2] = ζ potential of carbon nanostructures (Zetasizer); type: physicochemical; details: neutral charge
Method: The resulting PEI-SWCNT suspension was characterized by measuring the absorbance spectra on a UV-vis absorbance spectrophotometer (UV-2600, Shimadzu). The quality of the SWCNT suspension was determined by analyzing absorbance peaks at 632 nm. This measurement was performed with triplicates. The concentration of the PEI-SWCNT was determined spectrophotometrically using the absorption value at 632 nm and utilizing the equation (absorbance at 632 nm/extinction coefficient of 0.036)=mg L^−1. The final concentration obtained after purification ranged from 18 to 30 mg/L. The nanoparticle ζ potential was measured using a Zetasizer (Nano ZS, Malvern Instruments) in samples suspended in 10 mM TES buffer pH 7.0, with 0.1 mM NaCl. The hydrodynamic size was measured using Zetasizer (Nano ZS, Malvern Instruments) in samples suspended in a 10 mM TES buffer at pH 7.
Characterization of Nanomaterials. All nanomaterials were characterized by absorbance UV-vis spectroscopy (UV-2600 Shimadzu), hydrodynamic size (Nano S), and ζ potential (Nano ZS). The nanomaterial ζ potential and hydrodynamic diameter were measured in a 10 mM TES buffer (pH 7.0). The ζ potential measurements were performed in 0.1 mM NaCl to improve conductivity and analyzed by the Hückel approximation model.^111 CD fluorescence emission was collected using a fluorescence spectrometer (Horiba PTI QM-400). The stepwise synthesis of TP-β-CDs was analyzed using FTIR (Thermo Nicolet 6700 FTIR).

For `O=C(O)c1ccc2c(c1)C1(OC2=O)c2ccc(O)cc2Oc2cc(O)ccc21` [FDA, 6-carboxyfluorescein], the “localization of FDA in leaf mesophyll tissue” value [1] was “localized near the plasma membrane”.

In the case of “MASSMLSSATMVGGC [chloroplast targeting peptide for CD]”, the “charge of chloroplast targeting peptide” value [2] is reported as −0.1 mV.
